“Also recorded” adds a separate entry of the source.
Legend:
[1] = system: CLERK ectodomain (CLERK-ECD); test: Isothermal titration calorimetry, CLERK ectodomain; format: binding, Arabidopsis thaliana; details: ITC, 25°C, 20 mM citrate (pH 5.0), 150 mM NaCl; 400 µM peptide into 30 µM CLERK-ECD
Method: Isolation of recombinant proteins and analytical gel filtrations were carried out as described previously ([Hazak et al., 2017]) with small adjustments. The coding sequences for BAM1-ECD (amino acids 20-637), BAM3-ECD (30-651), PXY-ECD (30-647), NIK1-ECD (32-248), NIK2-ECD (33-248), NIK3-ECD (26-238), CLERK-ECD (28-236) and At5G63710-ECD (51-224) were amplified from Arabidopsis thaliana cDNA using PfuX7 polymerase. All ECD-coding sequences were then cloned into a modified pFAST-BAC1 vector (Geneva Biotech) by GIBSON cloning, resulting in the addition of the azurocidin signal peptide sequence to the 5′-end, and of a 2×-STREP-9×HIS tag to the 3′-end of the ECD sequences. These plasmids, after being confirmed by sequencing, were transformed into Escherichia coli DH10MultiBac (Geneva Biotech) followed by the extraction of the resulting bacmids. Transfection of the bacmids into Spodoptera frugiperda Sf9 cells with Profectin (AB Vector) was carried out to produce and amplify the respective virus. Recombinant secreted expression of the proteins was carried out by addition of virus to Trichoplusia ni Tnao38 cells to reach a viral multiplicity of 1 and incubation of the cells for 3 days. […] Concentrations of the pure proteins were assessed by measuring their absorbance at 280 nm (NanoDrop Lite; Thermo Scientific) and subsequent correction with their respective extinction coefficient. […]

Arabidopsis root growth = test: Root growth response (CLE resistance/sensitivity) of wild type and mutant seedlings; format: in vivo, Arabidopsis thaliana; details: for Root growth response of clerk mutants: clerk mutants vs Col-0 (and bam3 for CLE45), n=13-25 (Fig. 2B), n=16-19 (Fig. 2A)
Text: Arabidopsis thaliana Columbia-0 (Col-0) was used as the wild type for phenotypic analyses and is the background of all mutants investigated: ops-2 (SALK_139316); brx-2 ([Rodrigues et al., 2009]); bam3-2 (SALK_044433) ([DeYoung et al., 2006]); clerk-3 (SALK_066568); ops^E319K ([Rodriguez-Villalon et al., 2014]); makr5 ([Kang and Hardtke, 2016]); nik1 (SALK_017538C); nik2 (SALK_044363C); and sark (SALK_111290), clv2/rlp10-1 (GK-686A09) and crn-10 ([Hazak et al., 2017]). Seeds were surface sterilized, germinated and grown vertically under continuous light at 22°C on 0.5× Murashige and Skoog media supplemented with 1% agar and with or without 0.3% sucrose.
CLE peptides were obtained from a commercial supplier (Genscript), synthesized at >80% purity, diluted in water and used at final concentration as indicated. For root length measurements, plates were scanned at 600 dpi resolution and seedling root length was determined using the Simple Neurite Tracer plug-in ([Longair et al., 2011]) for Fiji software ([Schindelin et al., 2012]).
M2 mutagenized seeds ([Kalmbach et al., 2017]) were screened in tissue culture on media complemented with 10 nM CLE26 peptide. Seedlings with CLE26-resistant root growth were transferred to soil and the phenotype was confirmed in the M3 generation before backcrossing to Col-0 wild type. The causative mutation for CLE26 resistance was then determined by whole-genome sequencing of bulked segregants as described previously ([Kang and Hardtke, 2016]).

Row | Direct binding to CLERK ectodomain [1] | Sequence | Root growth, 10 confirmed CLE26-resistant mutants (Arabidopsis root growth; 100 nM CLE26, vs Col-0 wild type, ANOVA, P<0.001, n=8-21) | Sensitivity of clerk plants carrying CLERK::CLERK-GFP (Arabidopsis root growth; Fig. 1E) | Root growth response, clerk T-DNA insertion mutant (SALK_066568) (Arabidopsis root growth; Fig. 1E, n=28-47) | Response of brx crn double mutants (Arabidopsis root growth; Fig. S4) | Requirement of CLERK for sensing in the root (Arabidopsis root growth; clerk mutants) | Root growth response of clerk mutants (Arabidopsis root growth) | Response of clerk brx and clerk ops double mutants (Arabidopsis root growth; n=2-25) | Response of combinations of clerk with bam3, makr5 or ops^E319K (Arabidopsis root growth; n=2-25) | CLE sensitivity of clerk mutants with transgenic CLERK wild-type copy (Arabidopsis root growth; original and T-DNA clerk mutants, Fig. 1E, n=28-47) | Sensing with SARK or NIK1 expressed under the CLERK promoter (Arabidopsis root growth; several independent transgenic lines, n=21-43)
1 | no direct binding | RKVPRGPDPIHN [CLE26] | substantially resistant; also recorded: statistically significantly different when compared with Col-0 wild type | full sensitivity | strong CLE26 resistance | still CLE26 sensitive | CLERK is required for CLE26 sensing in the root | resistant | both clerk brx and clerk ops were CLE26 sensitive | additive CLE26 resistance | could be recovered | both SARK and NIK1 could replace the CLERK protein to sense CLE26
2 | no direct binding | RRVRRGSDPIHN [CLE45] |  |  |  |  |  | resistant |  |  |  | 

From PMC6001375, “CLERK is a novel receptor kinase required for sensing of root-active CLE peptides in Arabidopsis” (Development (Cambridge, England), 2018)
